Each structure is given as a SMILES string. pIC50: −log10 of the molar value.

The test system of this assay is bacterial strain LF82 binding to the glycoprotein BSA-(Mannose)3. Put plainly: Bacterial Binding Assay (BBA). Format: cell-based, Escherichia coli. The note with it: read-out: Bacterial Binding Assay IC50, LF82/Luciferase strain binding to BSA-(Man)3 coated plates, luminescence. The procedure, abridged: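 Inhibition of LF82/luciferase E. coli adhesion is read as luminescence after washing off unbound cells. Compound and bacteria (10^7 per well) are co-incubated 40-75 min at room temperature on wells coated with 0.5-2 μg/mL BSA-(Man)3, with BSA-only wells as background; IC50 values derived.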

Turning to `OC[C@H]1O[C@H](Cc2ccc(-c3ccc(C[C@H]4O[C@H](CO)[C@@H](O)[C@H](O)[C@@H]4O)cc3)cc2)[C@@H](O)[C@@H](O)[C@@H]1O` [Compound 41, ((2R,3S,4R,5S,6R)-2-(Hydroxymethyl)-6-[[4-[4-[[(2R,3S,4R,5S,6R)-3,4,5-trihydroxy-6-(hydroxymethyl)tetrahydropyran-2-yl]methyl]phenyl]phenyl]methyl]tetrahydropyran-3,4,5-triol)], the pIC50 was 6.26.

For the origin of these results see patent publication US11634447B2 (priority 2012, dated 2023).
